Measured values: PubChem BioAssay AID1963868 (Molecular Pharmacology Branch, DTP, NCI, 2024)

Tested on: KRAS PDC tumor spheroids (HUVEC+MSC), viability
Assay: Anticancer human tumor 254851-301-R-J1-PDC patient-derived colon carcinoma cell line growth inhibition [KRAS2]
Conditions: for IC50: curve of first compound; for viability, T/C: stronger effect = lower value
Procedure, shortened: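 Combination screen of spheroid viability in tumor-cell co-cultures with endothelial (HUVEC) and mesenchymal stem cell stroma. Each agent was tested in half-log dilutions, topping at clinical Cmax or at 10 microM without a known Cmax.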

[1] = second compound 0.0316 µM, first compound 0.000316 µM
[2] = second compound 0.0316 µM, first compound 0.001 µM
[3] = second compound 0.0316 µM, first compound 0.00316 µM
[4] = second compound 0.0316 µM, first compound 0.01 µM
[5] = second compound 0.0316 µM, first compound 0.0316 µM
[6] = second compound 0.1 µM, first compound 0.000316 µM
[7] = second compound 0.1 µM, first compound 0.001 µM
[8] = second compound 0.1 µM, first compound 0.00316 µM
[9] = second compound 0.1 µM, first compound 0.01 µM
[10] = second compound 0.1 µM, first compound 0.0316 µM
[11] = second compound 0.316 µM, first compound 0.000316 µM
[12] = second compound 0.316 µM, first compound 0.001 µM
[13] = second compound 0.316 µM, first compound 0.00316 µM
[14] = second compound 0.316 µM, first compound 0.01 µM
[15] = second compound 0.316 µM, first compound 0.0316 µM
[16] = second compound 1 µM, first compound 0.000316 µM
[17] = second compound 1 µM, first compound 0.001 µM
[18] = second compound 1 µM, first compound 0.00316 µM
[19] = second compound 1 µM, first compound 0.01 µM
[20] = second compound 1 µM, first compound 0.0316 µM
[21] = second compound 3.16 µM, first compound 0.000316 µM
[22] = second compound 3.16 µM, first compound 0.001 µM
[23] = second compound 3.16 µM, first compound 0.00316 µM
[24] = second compound 3.16 µM, first compound 0.01 µM
[25] = second compound 3.16 µM, first compound 0.0316 µM
[26] = second compound 0.0316 µM, first compound 0.1 µM
[27] = second compound 0.1 µM, first compound 0.1 µM
[28] = second compound 0.316 µM, first compound 0.1 µM
[29] = second compound 1 µM, first compound 0.1 µM
[30] = second compound 3.16 µM, first compound 0.1 µM
[31] = second compound 0.0316 µM, first compound 0.316 µM
[32] = second compound 0.0316 µM, first compound 1 µM
[33] = second compound 0.0316 µM, first compound 3.16 µM
[34] = second compound 0.0316 µM, first compound 10 µM
[35] = second compound 0.1 µM, first compound 0.316 µM
[36] = second compound 0.1 µM, first compound 1 µM
[37] = second compound 0.1 µM, first compound 3.16 µM
[38] = second compound 0.1 µM, first compound 10 µM
[39] = second compound 0.316 µM, first compound 0.316 µM
[40] = second compound 0.316 µM, first compound 1 µM
[41] = second compound 0.316 µM, first compound 3.16 µM
[42] = second compound 0.316 µM, first compound 10 µM
[43] = second compound 1 µM, first compound 0.316 µM
[44] = second compound 1 µM, first compound 1 µM
[45] = second compound 1 µM, first compound 3.16 µM
[46] = second compound 1 µM, first compound 10 µM
[47] = second compound 3.16 µM, first compound 0.316 µM
[48] = second compound 3.16 µM, first compound 1 µM
[49] = second compound 3.16 µM, first compound 3.16 µM
[50] = second compound 3.16 µM, first compound 10 µM
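Also: spheroids exposed to compounds for seven days before readout.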
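For viability, T/C in this document: 100% = DMSO vehicle control luminescence of the spheroids.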

CC(=O)Nc1cccc(-n2c(=O)n(C3CC3)c(=O)c3c(Nc4ccc(I)cc4F)n(C)c(=O)c(C)c32)c1 + C=CC(=O)N1CCN(c2nc(OCC3CCCN3C)nc3c2CCN(c2cccc4cccc(C)c24)C3)CC1CC#N
IC50 (second compound 0.0316 µM): 5.65 nM
IC50 (second compound 0.1 µM): 5.79 nM
IC50 (second compound 0.316 µM): 6.32 nM
IC50 (second compound 1 µM): 5.71 nM
IC50 (second compound 3.16 µM): 0.569 nM
viability, T/C (second compound 0.0316 µM, first compound 0.0001 µM): 103%
viability, T/C [1]: 94.3%
viability, T/C [2]: 89.5%
viability, T/C [3]: 72.1%
viability, T/C [4]: 29.2%
viability, T/C [5]: 3.04%
viability, T/C (second compound 0.1 µM, first compound 0.0001 µM): 98.1%
viability, T/C [6]: 106%
viability, T/C [7]: 95.4%
viability, T/C [8]: 77.9%
viability, T/C [9]: 25.1%
viability, T/C [10]: 2.8%
viability, T/C (second compound 0.316 µM, first compound 0.0001 µM): 102%
viability, T/C [11]: 114%
viability, T/C [12]: 93.5%
viability, T/C [13]: 84.9%
viability, T/C [14]: 27.5%
viability, T/C [15]: 2.51%
viability, T/C (second compound 1 µM, first compound 0.0001 µM): 106%
viability, T/C [16]: 109%
viability, T/C [17]: 92.6%
viability, T/C [18]: 83.4%
viability, T/C [19]: 19.1%
viability, T/C [20]: 1.86%
viability, T/C (second compound 3.16 µM, first compound 0.0001 µM): 76.9%
viability, T/C [21]: 52.7%
viability, T/C [22]: 40.3%
viability, T/C [23]: 39.5%
viability, T/C [24]: 0.5%
viability, T/C [25]: 0.93%

CN(C)C/C=C/C(=O)Nc1cc2c(Nc3ccc(F)c(Cl)c3)ncnc2cc1O[C@H]1CCOC1 + C=CC(=O)N1CCN(c2nc(OCC3CCCN3C)nc3c2CCN(c2cccc4cccc(C)c24)C3)CC1CC#N
IC50 (second compound 0.0316 µM): > 100 nM
IC50 (second compound 0.1 µM): > 100 nM
IC50 (second compound 0.316 µM): > 100 nM
IC50 (second compound 1 µM): > 100 nM
IC50 (second compound 3.16 µM): > 100 nM
viability, T/C [1]: 97.2%
viability, T/C [2]: 99.7%
viability, T/C [3]: 94.7%
viability, T/C [4]: 96.7%
viability, T/C [5]: 97.9%
viability, T/C [26]: 78.7%
viability, T/C [6]: 105%
viability, T/C [7]: 101%
viability, T/C [8]: 88.5%
viability, T/C [9]: 92.6%
viability, T/C [10]: 97.7%
viability, T/C [27]: 69.7%
viability, T/C [11]: 101%
viability, T/C [12]: 97.8%
viability, T/C [13]: 92.6%
viability, T/C [14]: 75%
viability, T/C [15]: 89.3%
viability, T/C [28]: 74.5%
viability, T/C [16]: 104%
viability, T/C [17]: 97.9%
viability, T/C [18]: 91.4%
viability, T/C [19]: 95.9%
viability, T/C [20]: 96.7%
viability, T/C [29]: 82.3%
viability, T/C [21]: 67.5%
viability, T/C [22]: 61.5%
viability, T/C [23]: 51.8%
viability, T/C [24]: 54.6%
viability, T/C [25]: 62.6%
viability, T/C [30]: 52.1%

COC(=O)c1ccc2c(C(=Nc3ccc(N(C)C(=O)CN4CCN(C)CC4)cc3)c3ccccc3)c(O)[nH]c2c1 + C=CC(=O)N1CCN(c2nc(OCC3CCCN3C)nc3c2CCN(c2cccc4cccc(C)c24)C3)CC1CC#N
IC50 (second compound 0.0316 µM): > 10000 nM
IC50 (second compound 0.1 µM): > 10000 nM
IC50 (second compound 0.316 µM): > 10000 nM
IC50 (second compound 1 µM): > 10000 nM
IC50 (second compound 3.16 µM): 583 nM
viability, T/C [5]: 93.5%
viability, T/C [26]: 89.8%
viability, T/C [31]: 98.9%
viability, T/C [32]: 87.8%
viability, T/C [33]: 81.7%
viability, T/C [34]: 83.3%
viability, T/C [10]: 95.5%
viability, T/C [27]: 94.9%
viability, T/C [35]: 92.3%
viability, T/C [36]: 83.8%
viability, T/C [37]: 81.8%
viability, T/C [38]: 82%
viability, T/C [15]: 81%
viability, T/C [28]: 88.5%
viability, T/C [39]: 86.3%
viability, T/C [40]: 77.1%
viability, T/C [41]: 68.1%
viability, T/C [42]: 77.8%
viability, T/C [20]: 85.8%
viability, T/C [29]: 86.2%
viability, T/C [43]: 86.7%
viability, T/C [44]: 78%
viability, T/C [45]: 75.6%
viability, T/C [46]: 76.3%
viability, T/C [25]: 70%
viability, T/C [30]: 65.2%
viability, T/C [47]: 57.9%
viability, T/C [48]: 42.3%
viability, T/C [49]: 7.1%
viability, T/C [50]: 0.21%

COc1cc(Nc2ncc3c(n2)-c2ccc(Cl)cc2C(c2c(F)cccc2OC)=NC3)ccc1C(=O)O + C=CC(=O)N1CCN(c2nc(OCC3CCCN3C)nc3c2CCN(c2cccc4cccc(C)c24)C3)CC1CC#N
IC50 (second compound 0.0316 µM): 89.2 nM
IC50 (second compound 0.1 µM): 87.2 nM
IC50 (second compound 0.316 µM): 89.1 nM
IC50 (second compound 1 µM): 78 nM
IC50 (second compound 3.16 µM): 34.6 nM
viability, T/C [5]: 84.6%
viability, T/C [26]: 41.6%
viability, T/C [31]: 30.3%
viability, T/C [32]: 27.5%
viability, T/C [33]: 17.7%
viability, T/C [34]: 9.36%
viability, T/C [10]: 82.4%
viability, T/C [27]: 40%
viability, T/C [35]: 31.1%
viability, T/C [36]: 27%
viability, T/C [37]: 16.2%
viability, T/C [38]: 8.9%
viability, T/C [15]: 79.4%
viability, T/C [28]: 40.6%
viability, T/C [39]: 32.7%
viability, T/C [40]: 24.5%
viability, T/C [41]: 17%
viability, T/C [42]: 7.34%
viability, T/C [20]: 73.5%
viability, T/C [29]: 37.5%
viability, T/C [43]: 32%
viability, T/C [44]: 25.9%
viability, T/C [45]: 16.4%
viability, T/C [46]: 8.35%
viability, T/C [25]: 53.9%
viability, T/C [30]: 22.1%
viability, T/C [47]: 19.8%
viability, T/C [48]: 17%
viability, T/C [49]: 6.88%
viability, T/C [50]: 1.67%

COc1cc2nccc(Oc3ccc(NC(=O)C4(C(=O)Nc5ccc(F)cc5)CC4)cc3)c2cc1OC + C=CC(=O)N1CCN(c2nc(OCC3CCCN3C)nc3c2CCN(c2cccc4cccc(C)c24)C3)CC1CC#N
IC50 (second compound 0.0316 µM): > 10000 nM
IC50 (second compound 0.1 µM): 9100 nM
IC50 (second compound 0.316 µM): 9150 nM
IC50 (second compound 1 µM): 6790 nM
IC50 (second compound 3.16 µM): 839 nM
viability, T/C [5]: 98.5%
viability, T/C [26]: 103%
viability, T/C [31]: 96.2%
viability, T/C [32]: 112%
viability, T/C [33]: 100%
viability, T/C [34]: 52.3%
viability, T/C [10]: 115%
viability, T/C [27]: 111%
viability, T/C [35]: 109%
viability, T/C [36]: 94.1%
viability, T/C [37]: 103%
viability, T/C [38]: 45%
viability, T/C [15]: 111%
viability, T/C [28]: 106%
viability, T/C [39]: 110%
viability, T/C [40]: 110%
viability, T/C [41]: 96%
viability, T/C [42]: 45.8%
viability, T/C [20]: 108%
viability, T/C [29]: 104%
viability, T/C [43]: 99.3%
viability, T/C [44]: 98.1%
viability, T/C [45]: 80.5%
viability, T/C [46]: 34.2%
viability, T/C [25]: 56.9%
viability, T/C [30]: 64.8%
viability, T/C [47]: 66.4%
viability, T/C [48]: 47.6%
viability, T/C [49]: 2.41%
viability, T/C [50]: 0.18%

O=C(c1cc(Cc2n[nH]c(=O)c3ccccc23)ccc1F)N1CCN(C(=O)C2CC2)CC1 + C=CC(=O)N1CCN(c2nc(OCC3CCCN3C)nc3c2CCN(c2cccc4cccc(C)c24)C3)CC1CC#N
IC50 (second compound 0.0316 µM): > 10000 nM
IC50 (second compound 0.1 µM): > 10000 nM
IC50 (second compound 0.316 µM): > 10000 nM
IC50 (second compound 1 µM): > 10000 nM
IC50 (second compound 3.16 µM): > 10000 nM
viability, T/C [5]: 108%
viability, T/C [26]: 111%
viability, T/C [31]: 96%
viability, T/C [32]: 96.4%
viability, T/C [33]: 81.5%
viability, T/C [34]: 84.9%
viability, T/C [10]: 105%
viability, T/C [27]: 106%
viability, T/C [35]: 97.8%
viability, T/C [36]: 104%
viability, T/C [37]: 93.5%
viability, T/C [38]: 92.6%
viability, T/C [15]: 101%
viability, T/C [28]: 99.6%
viability, T/C [39]: 102%
viability, T/C [40]: 99.7%
viability, T/C [41]: 98.4%
viability, T/C [42]: 92.7%
viability, T/C [20]: 96.8%
viability, T/C [29]: 98.7%
viability, T/C [43]: 101%
viability, T/C [44]: 92%
viability, T/C [45]: 99.8%
viability, T/C [46]: 92.1%
viability, T/C [25]: 67.8%
viability, T/C [30]: 55.4%
viability, T/C [47]: 72.5%
viability, T/C [48]: 60.1%
viability, T/C [49]: 69.4%
viability, T/C [50]: 69.4%
